What was measured:
human Fpn = target: T1, human Fpn (Homo sapiens, UniProt Q9NP59); assay: Biophysical Ferroportin-Hepcidin Binding Assay (fluorescence polarization); conditions: average of multiple measurements; 1 μM human Fpn, 20 nM TMR-hepcidin; read-out: FP IC50
T1 construct: FLAG (C); made in house; host or cells: Pichia pastoris
T1 sequence (Q9NP59 1-571): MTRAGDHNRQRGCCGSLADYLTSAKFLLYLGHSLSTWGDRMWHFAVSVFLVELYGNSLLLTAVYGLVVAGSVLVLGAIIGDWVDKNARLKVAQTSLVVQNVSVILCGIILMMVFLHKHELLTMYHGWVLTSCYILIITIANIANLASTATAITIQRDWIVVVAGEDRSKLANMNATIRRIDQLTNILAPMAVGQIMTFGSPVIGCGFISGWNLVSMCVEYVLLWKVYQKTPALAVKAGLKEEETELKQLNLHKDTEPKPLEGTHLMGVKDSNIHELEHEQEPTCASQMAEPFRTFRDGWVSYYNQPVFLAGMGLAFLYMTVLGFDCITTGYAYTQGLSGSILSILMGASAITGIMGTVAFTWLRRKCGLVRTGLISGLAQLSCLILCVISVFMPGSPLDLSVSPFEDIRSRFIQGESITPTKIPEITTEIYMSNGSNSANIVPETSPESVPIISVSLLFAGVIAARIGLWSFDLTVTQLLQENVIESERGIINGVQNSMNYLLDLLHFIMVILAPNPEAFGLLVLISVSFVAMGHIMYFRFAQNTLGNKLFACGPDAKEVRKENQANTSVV
In short: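 FP readout: a dose-dependent drop in TMR-hepcidin polarization (mP, from parallel and perpendicular emission) marked blocked binding to FLAG-tagged human Fpn purified from Pichia pastoris. Final levels were 1 μM Fpn and 20 nM TMR-hepcidin, with compound dilutions in duplicate, incubated 90 min at room temperature.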

human Fpn-GFP fusion [1] = target: T2, human Fpn-GFP fusion (Homo sapiens, UniProt Q9NP59); assay: Inhibition of ferroportin mediated iron export activity in an iron response assay (BLAzer); format: cell-based; conditions: average of multiple measurements; HEK-293 cell line #354; read-out: BLAzer EC50
T2 construct: expressed in transfected cells; host or cells: HEK-293 cell line #354 (derivative of HEK-293 Tet-ON Advanced, Clontech)
T2 sequence (Q9NP59 1-571): T1 sequence (Q9NP59 1-571)
In short: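 HEK-293 Tet-ON line with doxycycline-inducible Fpn-GFP and a ferritin promoter/IRE-BLA reporter was treated overnight at 37° C with compound dilutions in quadruplicate.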

human Fpn-GFP fusion [2] = target: T2, human Fpn-GFP fusion; assay: Ferroportin Internalization and Degradation Assay (FACS); format: cell-based; conditions: average of multiple measurements, Fpn-GFP MFI, HEK-293 cell line #354, FACS
Protocol: Growing HEK-293 #354 cells in doxycycline containing media induced expression of human Fpn-GFP fusion protein on the cell surface. […] Small molecular weight Fpn inhibitor compounds were tested for dose-dependent effects on the Fpn-GFP mean fluorescence intensity (MFI) on HEK-293 cell line #354, as described below. HEK #354 cells were harvested from ca. 80% confluent cultures, seeded at 0.6×10^6 (cells/ml in DMEM/F12 GlutaMAX™ medium (Invitrogen, Cat. 31331-028) containing 10% FBS (Clontech, Cat. 631106), 1% Penicillin-Streptomycin (Invitrogen, Cat. 15140-122), 200 μg/ml Hygromycin B (Invitrogen, Cat. 10687-010), Blasticidin 5 μg/ml, (Invitrogen, Cat. R210-01), 4 μg/ml doxycycline (Clontech, Cat. 631311), 50 μl per well of 384 well plates (Greiner; Cat. 781091) and grown at 37° C. with 5% CQ. After overnight incubation, 10 μl/well of dilution series of the test compounds were added in quadruplicates and plates were further incubated overnight at 37° C. with 5% CO2. Cells were washed once with FACS buffer (PBS containing 1% FBS, 2 mM EDTA and 0.05% NaN3), harvested in FACS buffer with 0.5 μg/ml propidium iodide (Sigma, Cat. P4864) and analyzed in a flow cytometer (CANTO™ II, BD Biosciences) equipped with high throughput sampler. Live HEK #354 cells were gated as propidium iodide negative population and analyzed for expression of Fpn-GFP.

Row | SMILES | IC50 (human Fpn) | EC50 (human Fpn-GFP fusion [1]) | EC50 (human Fpn-GFP fusion [2]) | DC50 (human Fpn-GFP fusion [2]; read-out: EC50 ferroportin internalization and degradation)
1 | O=C(NCc1ncccc1F)c1coc(CCNCCc2nc3c(F)cc(F)cc3[nH]2)n1 [Example 249] | 44 nM | 1550 nM | 950 nM | 
2 | O=C(NCc1ncccc1F)c1csc(CCNCC(F)(F)c2nc3ccccc3[nH]2)n1 [Example 196] | 870 nM | 12700 nM |  | 24800 nM
